Assay results as given in patent US11679097B2, “Combination product containing limonoid compound and biguanide compound” (ZHEJIANG YANGSHENGTANG INSTITUTE OF NATURAL MEDICATION CO., …, priority 2017, dated 2023).

Tested on: STZ mice
Test: Blood glucose in mouse pancreatic islet β-cell injury model (Example 3)
Format: in vivo
Conditions: STZ ICR mice; single administration 0.1 g/kg per day by gavage, two weeks; 1 h after last administration
Source text: Effects of a Limonoid Compound, Metformin or a Combination Thereof on Blood Glucose in a Mouse Pancreatic Islet β-Cell Injury Model In this example, a mouse pancreatic islet β-cell injury model was established by modeling ICR mice with streptozotocin (STZ) (referred to the prior art literature: Li Nan et al., Protective effect of pine pollen on kidney damage in diabetic nephropathy mice, Science and Technology Review, 2014, 32 (4/5): 95-99), and used to complete the evaluation of hypoglycemic effect in animals (this model could simulate pancreatic islet β-cell damage state of type I and type II diabetics). […] Conditions of experimental feeding: ICR mice (20±2 g), aged 6 weeks, purchased from Zhejiang Academy of Medical Sciences, and subjected to experimental feeding after 7 days of preliminary feeding. […] The experimental feed was mouse growth-stable feed (GB […]), and the daily feeding and management of the animals were under the responsibility of the animal security department, which provided the animals with sufficient padding and fresh drinking water daily. Experimental grouping: 15 male mice were randomly selected as the normal control group. […] Gavage doses: the gavage dose was 0.1 g/kg per day for the […] group, the gavage dose was 0.1 g/kg per day for the […] group, the gavage dose was 0.1 g/kg per day for the […]-glucopyranoside group, the gavage dose of metformin was 0.1 g/kg per day for the metformin group, […] dose of 0.05 g/kg and metformin at a dose of 0.05 g/kg were simultaneously gavaged per day for the […]/metformin combination group, […] dose of 0.05 g/kg and metformin at a dose of 0.05 g/kg were simultaneously gavaged per day for the […]/metformin combination group, […]-glucopyranoside at a dose of 0.05 g/kg and metformin at a dose of 0.05 g/kg were simultaneously gavaged per day for the […]-glucopyranoside/metformin combination group, the gavage volume was 10 mL/kg, and the normal group and the model group were administrated with 10 mL/kg of distilled water. […] SPSS 16.0 software was used for statistical analysis. The data were expressed as mean and standard deviation. The data before and after were analyzed by t-test, and P<0.05 was considered statistically significant.

CN(C)C(=N)NC(=N)N [Metformin, N,N-dimethylimidodicarbonimidic diamide, reference compound]
Blood glucose value: 17.2 ± 3.9 mmol/L
